Measurements taken from US11149271B2, “Method and pharmaceutical composition for treating cancer” (Macau University of Science and Technology, priority 2018, dated 2021).

Legend:
A2780 cells = experiment: MTT cytotoxicity assay on A2780 cells; assay type: cell-based, human; conditions: for IC50 / inhibition of growth and proliferation (cell viability): 48 h; for IC50: MTT; for inhibition of growth and proliferation (cell viability): 25 nM tRNA, RNAiMAX transfection, A2780 ovarian cancer cells (FIG. 3)
Experimental: (§1) A2780, Taxol-resistant A2780, HCT-8, Taxol-resistant HCT-8 and Taxol-resistant A549 cell lines were cultured in RPMI Medium 1640 medium containing 10% FBS and 1% penicillin/streptomycin. HepG2 and MCF-7 cell lines were cultured in Minimum Essential medium containing 10% FBS and 1% penicillin/streptomycin. All cell lines above were cultured at humidified atmosphere containing 5% CO2 at 37° C.
(§2) In the cytotoxicity assay, exponentially growing cells of each cancer cell line were plated in 96-well microplate at a density of 5000 cells per well in 100 μL of culture medium and allowed to adhere for 24 h before treatment. Serial concentrations of RNA molecules obtained in Example 1 and 2 in a mixture containing a gene delivery carrier, i.e. Lipofectamine™ RNAiMAX Transfection Reagent (Thermo Fisher Scientific, U.S.A.) were then added to the cells. After treated for 48 h, MTT solution (50 μL per well, 1 mg/mL solution) was added to each well and incubated for 4 h at 37° C. Subsequently, 200 μL dimethyl sulfoxide (DMSO) were added and the optical densities of the resulting solutions were calorimetrically determined at 570 nm using a SpectraMax 190 microplate reader (Molecular Devices, Sunnyvale, Calif., U.S.A). Dose-response curves were obtained, and the IC50 values were calculated by GraphPad Prism 5 (GraphPad, La Jolla, Calif., USA). Each experiment was carried out for three times. IC50 results were expressed as means±standard deviation.

[1] = test system: Taxol-resistant A2780T cells; experiment: MTT cytotoxicity assay on Taxol-resistant A2780 cells; assay type: cell-based, human
Experimental: as §1
as §2, with “Each experiment was carried out for three times.” left out

[2] = test system: Taxol-resistant A549T cells; experiment: MTT cytotoxicity assay on Taxol-resistant A549 cells; assay type: cell-based, human
Experimental: as §1
as §2, with “Each experiment was carried out for three times.” left out

[3] = test system: A2780 cells tumor xenografts; experiment: In vivo antitumor effect, A2780 xenograft in nude mice; parameters: species or system BALB/c nude mice; conditions: 2.4 mg/kg with 1% atelocollagen, tumor-adjacent injection once a week; for inhibition of tumor growth (ratio of tumor volume): 28 days (FIG. 7A); for body weight (ratio of weight changes): 28 days (FIG. 7B)
Experimental: Animal model having xenograft cancer was set. Female BALB/c nude mice (6-8-week old) were purchased from Shanghai SLAC Laboratory Animal Co., Ltd. and maintained at 25° C. with free access to food and water in a special pathogen-free laboratory of the animal environment facilities. The animal experiments were performed in compliance with institutional animal care guidelines and according to committee-approved protocol. To generate tumor xenografts, A2780 cells (4.0×10^6) were injected subcutaneously in 100 μL of 1640 medium through a 27-gauge needle into the armpit of 8-week-old BALB/c nude mice. After 4-5 weeks after tumors had reached 60-70 mm^3, the tumor-bearing nude mice were treated with synthesized tRF with atelocollagen (Koken Co., Ltd., Tokyo, Japan). The concentration of atelocollagen was 1%, and tumor-adjacent injection was performed by one dose of HC11 or HC30 (RNA molecule of SEQ ID NO: 1 or SEQ ID NO: 9) (GenePharma Co., Ltd., Shanghai, China) at concentration of 2.4 mg/kg with atelocollagen once a week. A control group was set up in which vehicle was administered to the mice. A Taxol group for administering 1 mg/kg Taxol to the mice was also set as a comparison. The entire treatment lasted for 28 days.
Tumor diameters were measured at maximum length and maximum width with digital calipers. And the tumor volume was calculated by the formula: volume=(width)^2×length/2. The data were statistically analyzed using GraphPad Prism 5 (GraphPad, La Jolla, Calif., USA). […] In other words, the RNA molecules of the present invention are effective in treating cancer cells both in vivo and in vitro.

[4] = test system: Taxol-resistant HCT-8 cells (HCT-8T); experiment: MTT cytotoxicity assay on Taxol-resistant HCT-8 cells; assay type: cell-based; conditions: 50 nM, 22 bp (FIG. 5F)
Experimental: as §1, §2

HCT-8 cells = experiment: MTT cytotoxicity assay on HCT-8 cells; assay type: cell-based; conditions: for dose dependence of growth and proliferation inhibition: 6.25-100 nM (FIG. 6G, 6H); for IC50: 48 h, MTT
Experimental: as §1, §2

HepG2 cells = experiment: MTT cytotoxicity assay on HepG2 cells; assay type: cell-based, human; conditions: 25 nM tRNA, 48 h, RNAiMAX transfection, HepG2 liver cancer cells (FIG. 3)
Experimental: as §1, §2

MCF-7 cells = experiment: MTT cytotoxicity assay on MCF-7 cells; assay type: cell-based, human; conditions: 25 nM tRNA, 48 h, RNAiMAX transfection, MCF-7 breast cancer cells (FIG. 3)
Experimental: as §1, §2

Molecule	cytotoxic effect (cell viability) [4]	inhibition of growth and proliferation (cell viability) (A2780 cells)	inhibition of growth and proliferation (cell viability) (HepG2 cells)	inhibition of growth and proliferation (cell viability) (MCF-7 cells)	further results
HC11: double-stranded RNA, sense SEQ ID NO: 1, antisense SEQ ID NO: 101, 22 bp, 5′-t of tRNA^His(GUG) (sense GCGGACGUAGCCAAGUGGUCCA; antisense UGGACCACUUGGCUACGUCCGC; RNA, backbone and methylation of C not given here; synthetic double-stranded RNA)					dose dependence of growth and proliferation inhibition (A2780 cells; A2780 cells, 6.25-100 nM (FIG. 6A)): dose-dependent effect; IC50 (A2780 cells; A2780 cells): 31 nM; dose dependence of growth and proliferation inhibition ([1]; A2780T cells, 6.25-200 nM (FIG. 6C)): dose-dependent effect; IC50 ([1]; Taxol-resistant A2780T cells, 48 h, MTT): 32.3 nM; dose dependence of growth and proliferation inhibition ([2]; A549T cells, 6.25-200 nM (FIG. 6E)): dose-dependent effect; IC50 ([2]; Taxol-resistant A549T cells, 48 h, MTT): 87.3 nM; inhibition of tumor growth (ratio of tumor volume) [3]: effective in inhibiting the growth of the tumor; body weight (ratio of weight changes) [3]: maintaining a relative constant body weight
HC18: double-stranded RNA, sense SEQ ID NO: 13, antisense SEQ ID NO: 113, 22 bp, 5′-t of tRNA^Leu(CAA) (sense GCCUUGAUGGUGAAAUGGUAGA; antisense UCUACCAUUUCACCAUCAAGGC; RNA, backbone and methylation of C not given here; synthetic double-stranded RNA)	useful in treating cancer which is resistant against Taxol				
HC30: double-stranded RNA, sense SEQ ID NO: 9, antisense SEQ ID NO: 109, 22 bp, 5′-t of tRNA^Trp(CCA) (sense GCGCUCUUAGUUCAGUGCGGUA; antisense UACCGCACUGAACUAAGAGCGC; RNA, backbone and methylation of C not given here; synthetic double-stranded RNA)					inhibition of tumor growth (ratio of tumor volume) [3]: effective in inhibiting the growth of the tumor; body weight (ratio of weight changes) [3]: maintaining a relative constant body weight
HC34: double-stranded RNA, sense SEQ ID NO: 25, antisense SEQ ID NO: 125, 22 bp, 5′-t of tRNA^Cys(GCA) (sense GGCGACAUAGCCAAGUGGUAAG; antisense CUUACCACUUGGCUAUGUCGCC; RNA, backbone and methylation of C not given here; synthetic double-stranded RNA)	useful in treating cancer which is resistant against Taxol				
HC36: double-stranded RNA, sense SEQ ID NO: 29, antisense SEQ ID NO: 129, 22 bp, 5′-t of tRNA^Asn(GUU) (sense CCUCAGUAGCUCAGUGGUAGAG; antisense CUCUACCACUGAGCUACUGAGG; RNA, backbone and methylation of C not given here; synthetic double-stranded RNA)	useful in treating cancer which is resistant against Taxol				dose dependence of growth and proliferation inhibition (HCT-8 cells): dose-dependent effect; IC50 (HCT-8 cells): 8.2 nM
HC37: double-stranded RNA, sense SEQ ID NO: 31, antisense SEQ ID NO: 131, 22 bp, 3′-t of tRNA^Asn(GUU) (sense GGUUCAAAUCCUAUUUGAGGAG; antisense CUCCUCAAAUAGGAUUUGAACC; RNA, backbone and methylation of C not given here; synthetic double-stranded RNA)	useful in treating cancer which is resistant against Taxol				dose dependence of growth and proliferation inhibition (HCT-8 cells): dose-dependent effect; IC50 (HCT-8 cells): 9.3 nM
HC39: double-stranded RNA, sense SEQ ID NO: 35, antisense SEQ ID NO: 135, 22 bp, 3′-t of tRNA^Met(CAU) (sense GGUUCAAAUCCCGUCUCCGCAA; antisense UUGCGGAGACGGGAUUUGAACC; RNA, backbone and methylation of C not given here; synthetic double-stranded RNA)	useful in treating cancer which is resistant against Taxol				
tRNA^Leu(CAA): tRNA isolated from Taxus chinensis (Pilger) Rehd. var. mairei, 84 mer (nucleic acid, expressed or natural sequence, tRNA isolated from Taxus chinensis (Pilger) Rehd. var. mairei, 84 mer) GCCUUGAUGGUGAAAUGGUAGACACGCGAGACUCAAAAUCUCGUGCUAAACAGCGUGGAGGUUCGAAUCCUCUUCAAGGCACCA		capable of inhibiting the growth and proliferation	capable of inhibiting the growth and proliferation	capable of inhibiting the growth and proliferation	
tRNA^His(GUG): tRNA isolated from Taxus chinensis (Pilger) Rehd. var. mairei, 78 mer (nucleic acid, expressed or natural sequence, tRNA isolated from Taxus chinensis (Pilger) Rehd. var. mairei, 78 mer) GCGGACGUAGCCAAGUGGUCCAAAGGCAGUGGAUUGUGAAUCCACCACGCGCGGGUUCAAUCCCCGUCGUUCGCCCCA		capable of inhibiting the growth and proliferation	capable of inhibiting the growth and proliferation	capable of inhibiting the growth and proliferation	
tRNA^Trp(CCA): tRNA isolated from Taxus chinensis (Pilger) Rehd. var. mairei, 75 mer (nucleic acid, expressed or natural sequence, tRNA isolated from Taxus chinensis (Pilger) Rehd. var. mairei, 75 mer) GCGCUCUUAGUUCAGUGCGGUAGAACGCAGGUCUCCAAAACCUGAUGCCGUAGGUUCAAAUCCUACAGAGCGCCA		capable of inhibiting the growth and proliferation	capable of inhibiting the growth and proliferation	capable of inhibiting the growth and proliferation	IC50 (A2780 cells; A2780 cells): ~14.3 nM
tRNA^Arg(ACG): tRNA isolated from Taxus chinensis (Pilger) Rehd. var. mairei, 77 mer (nucleic acid, expressed or natural sequence, tRNA isolated from Taxus chinensis (Pilger) Rehd. var. mairei, 77 mer) GGGCCUGUAGCUCAGAGGAUUAGAGCACGUGGUUGCGAACCACGGUGUCGGGGGUUCGAAUCCCUCCUCGCCCACCA		capable of inhibiting the growth and proliferation	capable of inhibiting the growth and proliferation	capable of inhibiting the growth and proliferation	
tRNA^Glu(UUC): tRNA isolated from Taxus chinensis (Pilger) Rehd. var. mairei, 76 mer (nucleic acid, expressed or natural sequence, tRNA isolated from Taxus chinensis (Pilger) Rehd. var. mairei, 76 mer) GCCCCUAUCGUCUAGUGGCCCAGGACAUCUCUCUUUCAAGGAGGCAACGGGGAUUCGAUUUCCCCUAGGGGUACCA		capable of inhibiting the growth and proliferation	capable of inhibiting the growth and proliferation	capable of inhibiting the growth and proliferation	
